Results: ChEMBL document CHEMBL1145727, “Improvement of biological activity and proteolytic stability of peptides by coupling with a cyclic peptide” (Bioorg Med Chem Lett, 2003)
Bridge positions count the residues as written; N and C are the ends. Peptide text beside a SMILES is read from it.

Assays:
[1] = molecular target: Protein farnesyltransferase (Homo sapiens, UniProt P49354+P49356); assay: Inhibition of Farnesyltransferase by Scintillation Proximity Assay; type: protein-complex assay
Integrin alpha-5/beta-1 = Integrin alpha-5/beta-1 (Homo sapiens, UniProt P05556+P08648); assay: Inhibition of mouse melanoma B16-F10 cell adhesion to fibronectin; type: functional, cell-based
[2] = molecular target: T1, Integrin alpha-IIb/beta-3 (Homo sapiens) (UniProt P05106+P08514); assay: Inhibition of platelet aggregation at 0.3 mM in platelet-rich plasma (PRP) of citreated rabbit heart blood; type: functional; details: Oryctolagus cuniculus, target entry is the homologue from another species
[3] = molecular target: T1, Integrin alpha-IIb/beta-3 (Homo sapiens); assay: Inhibition of platelet aggregation at 1 mM in platelet-rich plasma (PRP) of citreated rabbit heart blood; type: functional; details: Oryctolagus cuniculus, target entry is the homologue from another species
[4] = molecular target: Protein farnesyltransferase (Bos taurus, UniProt P29702+P49355); assay: In vitro inhibition of farnesylation of v-Ki-Ras by bovine farnesyl transferase; type: protein-complex assay
[5] = molecular target: T1, Integrin alpha-IIb/beta-3 (Homo sapiens); assay: Inhibition of platelet aggregation at 0.1 mM in platelet-rich plasma (PRP) of citreated rabbit heart blood; type: functional; details: Oryctolagus cuniculus, target entry is the homologue from another species

Chain of Integrin alpha-5/beta-1 (P05556 21-798 limits assumed): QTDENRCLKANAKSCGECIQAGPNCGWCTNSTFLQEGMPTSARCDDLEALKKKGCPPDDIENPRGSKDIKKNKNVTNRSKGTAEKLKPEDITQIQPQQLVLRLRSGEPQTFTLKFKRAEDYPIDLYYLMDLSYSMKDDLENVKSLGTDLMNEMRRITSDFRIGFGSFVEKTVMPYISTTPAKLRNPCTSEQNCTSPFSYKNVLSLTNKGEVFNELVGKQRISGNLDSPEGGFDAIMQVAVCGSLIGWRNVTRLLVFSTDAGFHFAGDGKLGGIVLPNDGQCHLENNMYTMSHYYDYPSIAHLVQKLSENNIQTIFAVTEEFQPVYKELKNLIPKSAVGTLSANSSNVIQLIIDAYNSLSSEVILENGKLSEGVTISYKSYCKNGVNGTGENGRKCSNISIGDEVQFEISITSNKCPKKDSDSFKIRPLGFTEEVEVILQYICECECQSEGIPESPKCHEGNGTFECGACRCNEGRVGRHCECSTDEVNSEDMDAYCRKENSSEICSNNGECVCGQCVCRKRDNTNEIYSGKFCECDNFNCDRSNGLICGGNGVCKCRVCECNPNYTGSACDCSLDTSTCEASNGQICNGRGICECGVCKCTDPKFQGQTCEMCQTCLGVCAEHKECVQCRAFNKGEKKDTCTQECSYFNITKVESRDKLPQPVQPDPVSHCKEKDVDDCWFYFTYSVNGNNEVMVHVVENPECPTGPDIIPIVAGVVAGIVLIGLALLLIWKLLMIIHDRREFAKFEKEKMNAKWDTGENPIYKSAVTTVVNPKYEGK
Chain of Integrin alpha-5/beta-1 (P08648 42-894 limits assumed): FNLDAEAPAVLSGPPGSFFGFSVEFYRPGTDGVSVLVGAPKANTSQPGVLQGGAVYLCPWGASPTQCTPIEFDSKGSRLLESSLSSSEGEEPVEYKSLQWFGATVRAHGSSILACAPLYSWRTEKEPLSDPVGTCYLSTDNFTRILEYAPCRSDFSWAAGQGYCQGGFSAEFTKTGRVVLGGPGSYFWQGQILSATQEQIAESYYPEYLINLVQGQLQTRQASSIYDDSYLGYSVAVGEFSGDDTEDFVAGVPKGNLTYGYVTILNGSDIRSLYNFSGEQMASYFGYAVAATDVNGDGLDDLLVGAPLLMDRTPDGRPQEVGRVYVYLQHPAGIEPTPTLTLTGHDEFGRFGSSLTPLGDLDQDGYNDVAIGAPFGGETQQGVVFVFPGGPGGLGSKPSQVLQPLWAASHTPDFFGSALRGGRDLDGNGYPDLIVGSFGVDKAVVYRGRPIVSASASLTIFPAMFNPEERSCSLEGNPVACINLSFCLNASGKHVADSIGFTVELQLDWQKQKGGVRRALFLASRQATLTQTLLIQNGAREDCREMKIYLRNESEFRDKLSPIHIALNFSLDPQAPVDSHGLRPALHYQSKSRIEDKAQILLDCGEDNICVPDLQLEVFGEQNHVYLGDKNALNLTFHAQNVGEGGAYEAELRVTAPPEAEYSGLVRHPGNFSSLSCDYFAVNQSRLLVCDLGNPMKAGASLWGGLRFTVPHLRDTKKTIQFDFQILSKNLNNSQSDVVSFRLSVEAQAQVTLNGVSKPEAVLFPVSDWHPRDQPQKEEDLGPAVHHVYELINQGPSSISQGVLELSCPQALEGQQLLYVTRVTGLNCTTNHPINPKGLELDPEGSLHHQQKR
Chain of Integrin alpha-5/beta-1 (P08648 895-1049 limits assumed): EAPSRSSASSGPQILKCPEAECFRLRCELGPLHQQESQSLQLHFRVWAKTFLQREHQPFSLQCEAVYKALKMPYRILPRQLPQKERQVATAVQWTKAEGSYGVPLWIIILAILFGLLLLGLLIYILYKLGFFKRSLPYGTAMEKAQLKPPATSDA

Compound: CSCC[C@H](NC(=O)[C@@H](NC(=O)[C@@H](NC(=O)[C@H](CS)NC(=O)[C@@H]1CCCN1C(=O)[C@H](CC(C)C)NC(=O)CNC(=O)[C@H](CCSC)NC(=O)[C@@H](N)CO)C(C)C)C(C)C)C(=O)O
- IC50 [1]: 1.2 µM

Compound: H-VTGRGDSPA-OH [listing 1 of 2 here]
- IC50 (Integrin alpha-5/beta-1): 1100 µM

Compound: CC(C)[C@H](NC(=O)[C@H](C)NC(=O)[C@H](Cc1ccc(O)cc1)NC(=O)[C@@H](NC(=O)[C@@H]1CC(=O)NCC(=O)N[C@@H](CC(N)=O)C(=O)N[C@@H](Cc2c[nH]c3ccccc23)C(=O)N[C@@H](Cc2cnc[nH]2)C(=O)NCC(=O)N[C@@H]([C@@H](C)O)C(=O)N[C@@H](C)C(=O)N2CCC[C@H]2C(=O)N1)C(C)C)C(=O)N[C@H](C(=O)NCC(=O)N[C@@H](CCCNC(=N)N)C(=O)NCC(=O)N[C@@H](CC(=O)O)C(=O)N[C@@H](CO)C(=O)N1CCC[C@H]1C(=O)N[C@@H](C)C(N)=O)[C@@H](C)O (GNWHGTAPDVYAVTGRGDSPA-NH2; lactam N-9)
- IC50 (Integrin alpha-5/beta-1; b16-f10): 800 µM

Compound: H-VYAVTGRGDSPA-NH2
- IC50 (Integrin alpha-5/beta-1): 1000 µM

Compound: CC(C)[C@H](NC(=O)[C@@H]1CC(=O)NCC(=O)N[C@@H](CC(N)=O)C(=O)N[C@@H](Cc2c[nH]c3ccccc23)C(=O)N[C@@H](Cc2cnc[nH]2)C(=O)NCC(=O)N[C@@H]([C@@H](C)O)C(=O)N[C@@H](C)C(=O)N2CCC[C@H]2C(=O)N1)C(=O)N[C@H](C(=O)NCC(=O)N[C@@H](CCCNC(=N)N)C(=O)NCC(=O)N[C@@H](CC(=O)O)C(=O)N[C@@H](CO)C(=O)N1CCC[C@H]1C(=O)N[C@@H](C)C(=O)O)[C@@H](C)O
- IC50 (Integrin alpha-5/beta-1): 290 µM

Compound: H-VTGRGDSPA-OH [listing 2 of 2 here]
- Inhibitory ratio [2]: 20.3%
- Inhibitory ratio [3]: 61.2%

Compound: CSCC[C@H](NC(=O)[C@@H](NC(=O)[C@@H](NC(=O)[C@H](CS)NC(=O)[C@H]1CCCN1C(=O)[C@H](CC(C)C)NC(=O)CNC(=O)[C@H](CCSC)NC(=O)[C@H](CO)N[C@H]1CC(=O)NCC(=O)N[C@H](CC(N)=O)C(=O)N[C@@H](Cc2c[nH]c3ccccc23)C(=O)N[C@H](Cc2c[nH]cn2)C(=O)NCC(=O)N[C@H]([C@@H](C)O)C(=O)N[C@@H](C)C(=O)N2CCC[C@@H]2C(=O)N1)C(C)C)C(C)C)C(=O)O
- IC50 [1]: 0.42 µM
- IC50 [4]: 560 µM

Compound: CC(C)[C@H](NC(=O)[C@H]1CC(=O)NCC(=O)N[C@H](CC(N)=O)C(=O)N[C@@H](Cc2c[nH]c3ccccc23)C(=O)N[C@H](Cc2c[nH]cn2)C(=O)NCC(=O)N[C@H]([C@@H](C)O)C(=O)N[C@@H](C)C(=O)N2CCC[C@@H]2C(=O)N1)C(=O)N[C@H](C(=O)NCC(=O)N[C@@H](CCCN=C(N)N)C(=O)NCC(=O)N[C@@H](CC(=O)O)C(=O)N[C@@H](CO)C(=O)N1CCC[C@@H]1C(=O)N[C@@H](C)C(=O)O)[C@@H](C)O
- Inhibitory ratio [2]: 78.4%
- Inhibitory ratio [5]: 28.3%
- Inhibitory ratio [3]: 92.1%
